Measurements reported in ChEMBL document CHEMBL6182869, “Tetracationic tetraaryltetranaphtho[2,3]porphyrins for photodynamic inactivation against Staphylococcus aureus biofilm” (Eur J Med Chem, 2025).
Activity calls are given as the source filed them. The rule behind the calls is not given here.

What was measured:
[1] = Photophysical property of the compound assessed as fluorescence quantum yield by UV-vis spectrophotometric analysis; format: physicochemical
[2] = Photophysical property of the compound assessed as singlet oxygen quantum yield by UV-vis spectrophotometric analysis; format: physicochemical
[3] = Induction of singlet oxygen quantum yield under 418 nm light irradiation by DPBF based assay; format: functional
[4] = system: Staphylococcus aureus; experiment: Antibacterial activity against Staphylococcus aureus assessed as bacterial growth inhibition preincubated with compound for 15 mins followed by light irradiated with 730 nm, 40 J/cm2 and measured after 24 hrs by broth microdilution method; format: functional; conditions: light or radiation study, 24.25 h, time 1455 min
[5] = system: Staphylococcus aureus; experiment: Antibacterial activity against Staphylococcus aureus assessed as bacterial growth inhibition measured after 24 hrs by broth microdilution method; format: functional
[6] = system: Escherichia coli; experiment: Antibacterial activity against Escherichia coli assessed as bacterial growth inhibition measured after 24 hrs by broth microdilution method; format: functional
[7] = system: Escherichia coli; experiment: Antibacterial activity against Escherichia coli assessed as bacterial growth inhibition preincubated with compound for 15 mins followed by light irradiated with 730 nm, 40 J/cm2 and measured after 24 hrs by broth microdilution method; format: functional; conditions: light or radiation study, 24.25 h, time 1455 min
[8] = system: Candida albicans; experiment: Antifungal activity against Candida albicans assessed as fungal growth inhibition measured after 24 hrs by broth microdilution method; format: functional
[9] = system: Candida albicans; experiment: Antifungal activity against Candida albicans assessed as fungal growth inhibition preincubated with compound for 15 mins followed by light irradiated with 730 nm, 40 J/cm2 and measured after 24 hrs by broth microdilution method; format: functional; conditions: light or radiation study, 24.25 h, time 1455 min

Row | SMILES | Activity [1] | Activity [2] | Activity [3] | MIC [4] [µM] | MIC [5] [µM] | MIC [6] [µM] | MIC [7] [µM] | MIC [8] [µM] | MIC [9] [µM]
1 | CC[N+](C)(CC)CCCCCOc1ccc(-c2c3nc(c(-c4ccc(OCCCCC[N+](C)(CC)CC)cc4)c4[nH]c(c(-c5ccc(OCCCCC[N+](C)(CC)CC)cc5)c5nc(c(-c6ccc(OCCCCC[N+](C)(CC)CC)cc6)c6[nH]c2c2cc7ccccc7cc62)-c2cc6ccccc6cc2-5)c2cc5ccccc5cc42)-c2cc4ccccc4cc2-3)cc1.[Br-].[Br-].[Br-].[Br-] | 0.07 | 0.67 | Active | 16 | 32 | > 64 | > 64 | 64 | 64
2 | [Br-].[Br-].[Br-].[Br-].c1cc[n+](CCCCCOc2ccc(-c3c4nc(c(-c5ccc(OCCCCC[n+]6ccccc6)cc5)c5[nH]c(c(-c6ccc(OCCCCC[n+]7ccccc7)cc6)c6nc(c(-c7ccc(OCCCCC[n+]8ccccc8)cc7)c7[nH]c3c3cc8ccccc8cc73)-c3cc7ccccc7cc3-6)c3cc6ccccc6cc53)-c3cc5ccccc5cc3-4)cc2)cc1 | 0.08 | 0.5 | Active | 32 | 64 | > 64 | > 64 | 64 | 32
3 | CC[N+](C)(CC)CCCCCCOc1ccc(-c2c3nc(c(-c4ccc(OCCCCCC[N+](C)(CC)CC)cc4)c4[nH]c(c(-c5ccc(OCCCCCC[N+](C)(CC)CC)cc5)c5nc(c(-c6ccc(OCCCCCC[N+](C)(CC)CC)cc6)c6[nH]c2c2cc7ccccc7cc62)-c2cc6ccccc6cc2-5)c2cc5ccccc5cc42)-c2cc4ccccc4cc2-3)cc1.[Br-].[Br-].[Br-].[Br-] | 0.07 | 0.68 | Active | 64 | 64 | > 64 | > 64 | 64 | 64
4 | CC[N+](C)(CC)CCCCOc1ccc(-c2c3nc(c(-c4ccc(OCCCC[N+](C)(CC)CC)cc4)c4[nH]c(c(-c5ccc(OCCCC[N+](C)(CC)CC)cc5)c5nc(c(-c6ccc(OCCCC[N+](C)(CC)CC)cc6)c6[nH]c2c2cc7ccccc7cc62)-c2cc6ccccc6cc2-5)c2cc5ccccc5cc42)-c2cc4ccccc4cc2-3)cc1.[Br-].[Br-].[Br-].[Br-] | 0.07 | 0.56 | Active | 8 | 16 | > 64 | > 64 | 64 | 64
5 | C[N+](C)(C)CCCCCOc1ccc(-c2c3nc(c(-c4ccc(OCCCCC[N+](C)(C)C)cc4)c4[nH]c(c(-c5ccc(OCCCCC[N+](C)(C)C)cc5)c5nc(c(-c6ccc(OCCCCC[N+](C)(C)C)cc6)c6[nH]c2c2cc7ccccc7cc62)-c2cc6ccccc6cc2-5)c2cc5ccccc5cc42)-c2cc4ccccc4cc2-3)cc1.[Br-].[Br-].[Br-].[Br-] | 0.07 | 0.47 | Active | 16 | 64 | > 64 | > 64 | 64 | 64
6 | C[N+](C)(C)CCCCOc1ccc(-c2c3nc(c(-c4ccc(OCCCC[N+](C)(C)C)cc4)c4[nH]c(c(-c5ccc(OCCCC[N+](C)(C)C)cc5)c5nc(c(-c6ccc(OCCCC[N+](C)(C)C)cc6)c6[nH]c2c2cc7ccccc7cc62)-c2cc6ccccc6cc2-5)c2cc5ccccc5cc42)-c2cc4ccccc4cc2-3)cc1.[Br-].[Br-].[Br-].[Br-] | 0.08 | 0.41 | Active | 16 | 32 | > 64 | > 64 | 64 | 64
7 | C[N+](C)(C)CCCCCCOc1ccc(-c2c3nc(c(-c4ccc(OCCCCCC[N+](C)(C)C)cc4)c4[nH]c(c(-c5ccc(OCCCCCC[N+](C)(C)C)cc5)c5nc(c(-c6ccc(OCCCCCC[N+](C)(C)C)cc6)c6[nH]c2c2cc7ccccc7cc62)-c2cc6ccccc6cc2-5)c2cc5ccccc5cc42)-c2cc4ccccc4cc2-3)cc1.[Br-].[Br-].[Br-].[Br-] | 0.07 | 0.48 | Active | 16 | 64 | > 64 | > 64 | 64 | 64
8 | [Br-].[Br-].[Br-].[Br-].c1cc[n+](CCCCCCOc2ccc(-c3c4nc(c(-c5ccc(OCCCCCC[n+]6ccccc6)cc5)c5[nH]c(c(-c6ccc(OCCCCCC[n+]7ccccc7)cc6)c6nc(c(-c7ccc(OCCCCCC[n+]8ccccc8)cc7)c7[nH]c3c3cc8ccccc8cc73)-c3cc7ccccc7cc3-6)c3cc6ccccc6cc53)-c3cc5ccccc5cc3-4)cc2)cc1 | 0.07 | 0.52 | Active | 64 | 64 | > 64 | > 64 | 64 | 64
9 | [Br-].[Br-].[Br-].[Br-].c1cc[n+](CCCCOc2ccc(-c3c4nc(c(-c5ccc(OCCCC[n+]6ccccc6)cc5)c5[nH]c(c(-c6ccc(OCCCC[n+]7ccccc7)cc6)c6nc(c(-c7ccc(OCCCC[n+]8ccccc8)cc7)c7[nH]c3c3cc8ccccc8cc73)-c3cc7ccccc7cc3-6)c3cc6ccccc6cc53)-c3cc5ccccc5cc3-4)cc2)cc1 | 0.08 | 0.45 | Active | 32 | 64 | > 64 | > 64 | 64 | 32
